Measured values reported in ChEMBL document CHEMBL4219231, “Nε-Acryloyllysine Piperazides as Irreversible Inhibitors of Transglutaminase 2: Synthesis, Structure-Activity Relationships, and Pharmacokinetic Profiling” (J Med Chem, 2018).
The source made the active and inactive calls. No cut-off for these calls is given here.

Key:
[1] = Membrane retention, RM of the compound; assay type: physicochemical
[2] = Chromatographic hydrophobicity index in immobilized artificial membrane at pH 7.4 by HPLC method; assay type: ADME, cell membranes
in vitro = settings: PAMPA
Description: Effective permeability of the compound by PAMPA assay

[3] = biological target: T1, Protein-glutamine gamma-glutamyltransferase (Homo sapiens, UniProt P21980); assay: Irreversible inhibition of human TGase 2 using Z-Glu(HMC)-Gly-OH as substrate measured at 20 secs interval over 900 secs by fluorimetric assay
T1 sequence (P21980 whole entry): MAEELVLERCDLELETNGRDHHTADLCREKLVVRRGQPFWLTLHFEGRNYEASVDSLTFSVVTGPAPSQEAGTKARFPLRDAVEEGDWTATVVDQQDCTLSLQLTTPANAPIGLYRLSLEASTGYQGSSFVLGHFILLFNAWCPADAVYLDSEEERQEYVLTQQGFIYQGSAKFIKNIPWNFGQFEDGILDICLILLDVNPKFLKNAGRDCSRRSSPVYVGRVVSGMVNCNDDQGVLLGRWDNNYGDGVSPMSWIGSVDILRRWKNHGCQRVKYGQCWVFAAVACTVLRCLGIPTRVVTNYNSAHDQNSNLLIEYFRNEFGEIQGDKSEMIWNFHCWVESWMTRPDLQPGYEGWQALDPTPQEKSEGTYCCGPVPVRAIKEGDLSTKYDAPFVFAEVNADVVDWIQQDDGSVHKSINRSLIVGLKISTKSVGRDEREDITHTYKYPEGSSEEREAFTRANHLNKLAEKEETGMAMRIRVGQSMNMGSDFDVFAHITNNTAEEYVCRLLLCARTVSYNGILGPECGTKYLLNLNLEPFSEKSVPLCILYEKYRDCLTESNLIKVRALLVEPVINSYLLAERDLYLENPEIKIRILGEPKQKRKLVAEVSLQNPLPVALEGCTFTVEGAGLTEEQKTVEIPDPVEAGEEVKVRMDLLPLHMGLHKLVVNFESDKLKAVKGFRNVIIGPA

[4] = Inhibition of guinea pig TGase 2 using F-Cad/DMC as substrate preincubated for 30 mins followed by substrate addition measured at 30 secs interval over 900 secs by fluorescence anisotropy assay; parameters: species or system Cavia porcellus
[5] = Metabolic stability in mouse liver microsomes assessed as parent compound remaining at 100 uM measured after 60 mins by HPLC-UV analysis; assay type: ADME, microsome; settings: for Stability: microsomes, 1 h, 100 µM; for remaining at 1 h, 100 µM: liver microsomes, read-out: Stability
[6] = n-octanol-phosphate buffer partition coefficient, log D of compound at pH 7.4 by 19F NMR analysis; assay type: physicochemical
[7] = biological target: T1, Protein-glutamine gamma-glutamyltransferase; assay: Reversible inhibition of human TGase 2 using Z-Glu(HMC)-Gly-OH as substrate measured at 20 secs interval over 900 secs by fluorimetric assay
[8] = biological target: T1, Protein-glutamine gamma-glutamyltransferase; assay: Inhibition of human TGase 2 using R-I-Cad/DMC as substrate preincubated for 5 mins followed by substrate addition measured at 30 secs interval over 900 secs by fluorescence anisotropy assay
[9] = biological target: T1, Protein-glutamine gamma-glutamyltransferase; assay: Inhibition of TGase 2 in human A375 cells using R-I-Cad/DMC as substrate preincubated for 5 mins followed by substrate addition measured at 30 secs interval over 900 secs by fluorescence anisotropy assay; assay type: cell-based
Cavia porcellus = species on record: Cavia porcellus; assay: Irreversible inhibition of guinea pig TGase 2 using F-Cad/DMC as substrate at 30 uM preincubated for 30 mins followed by 1:100 dilution of compound-enzyme pre-incubated mixture at 30 secs interval over 900 secs by fluorescence anisotropy assay
[10] = biological target: T2, Protein-glutamine gamma-glutamyltransferase (Homo sapiens) (UniProt P21980); assay: Inhibition of human TGase 2 assessed as enzyme activity factor using R-I-Cad/DMC as substrate at 10 to 240 nM preincubated for 40 mins followed by substrate addition measured at 30 secs interval over 900 secs by fluorescence anisotropy assay; parameters: scale not given: the % may be the effect or the level left
T2 sequence (whole entry): T1 sequence (P21980 whole entry)

[11] = biological target: T2, Protein-glutamine gamma-glutamyltransferase (Homo sapiens); assay: Inhibition of human TGase 2 assessed as enzyme activity factor using Z-Glu(HMC)-Gly-OH as substrate at 5 to 100 nM preincubated for 40 mins followed by substrate addition measured over 300 secs by fluorimetric assay; parameters: scale not given: the % may be the effect or the level left

SMILES | Rm [1] [%] | CHI [2] | Papp (in vitro) [×10⁻⁶ cm/s] | Ki [3] [µM] | other results
C=CC(=O)NCCCC[C@H](NC(=O)Cc1ccccc1)C(=O)N1CCN(S(=O)(=O)c2cccc3c(N(C)C)cccc23)CC1 | 38 | 37.7 | 7.68 | – | –
C=CC(=O)NCCCC[C@H](NC(=O)Cc1ccccc1F)C(=O)N1CCN(c2cccc(C)n2)CC1 | 21 | 30.1 | 11.4 | 4.49 | –
C=CC(=O)NCCCC[C@H](NC(=O)Cc1ccccc1)C(=O)N1CCN(c2cccnc2)CC1 | – | – | – | 2.6 | –
NCCCCCNC(=S)Nc1ccc2c(c1)C(=O)OC21c2ccc(O)cc2Oc2cc(O)ccc21 | – | – | – | – | Ki [4]: 9.15 µM
C=CC(=O)NCCCC[C@H](NC(=O)C(F)(F)F)C(=O)N1CCN(c2cccc(-c3ccccc3)n2)CC1 | – | – | – | 14.3 | –
C=CC(=O)NCCCC[C@H](NC(=O)Cc1ccccc1)C(=O)N1CCN(c2ccncc2)CC1 | 31 | 25.4 | 0.51 | 2.55 | Stability [5]: Stable
C=CC(=O)NCCCC[C@H](NC(=O)Cc1ccccc1F)C(=O)N1CCN(c2cccc([N+](=O)[O-])n2)CC1 | 12 | 30.7 | 8.74 | 1.98 | logD [6]: 2.25
C=CC(=O)NCCCC[C@H](NC(=O)Cc1ccccc1)C(=O)N1CCN(c2ccc(C(=O)OC)nc2)CC1 | – | – | – | 7.12 | –
C=CC(=O)NCCCC[C@H](NC(=O)Cc1ccccc1)C(=O)N1CCN(Cc2ccc(F)cc2)CC1 | 12 | 32 | 10.3 | 7.6 | logD [6]: 2.65
C=CC(=O)NCCCC[C@H](NC(=O)Cc1ccc(F)cc1)C(=O)N1CCN(c2cccc(C)n2)CC1 | 10 | 32.4 | 11.4 | – | logD [6]: 0.36
C=CC(=O)NCCCC[C@@H](NC(=O)Cc1ccccc1)C(=O)N1CCN(c2cccc(C)n2)CC1 | – | – | – | – | IC50 [4]: 0.79 µM
C=CC(=O)NCCCC[C@H](NC(=O)Nc1ccc(F)cc1)C(=O)N1CCN(c2cccc(C)n2)CC1 | 11 | 34.3 | 12.5 | – | IC50 [4]: 0.46 µM; logD [6]: 0.47
C=CC(=O)NCCCC[C@H](NC(=O)Cc1ccc(F)cc1)C(=O)N1CCN(c2ccc([N+](=O)[O-])nc2)CC1 | 9 | 28.3 | 1.97 | 5.02 | Stability [5]: Stable; logD [6]: 1.85
C=CC(=O)NCCCC[C@H](NC(=O)Cc1ccccc1)C(=O)N1CCN(c2cccc(I)n2)CC1 | – | – | – | – | Ki [7]: 2.92 µM; IC50 [8]: 0.14 µM
CCC(=O)NCCCC[C@H](NC(=O)Cc1ccccc1)C(=O)N1CCN(c2ccc([N+](=O)[O-])nc2)CC1 | – | – | – | – | Ki [7]: 15 µM
C=CC(=O)NCCCC[C@H](NC(=O)Cc1cccs1)C(=O)N1CCN(c2cccc(C)n2)CC1 | – | – | – | 5.56 | –
C=CC(=O)NCCCC[C@H](NC(=O)Cc1ccccc1)C(=O)N1CCN(c2cccc(OCCF)n2)CC1 | – | – | – | – | Ki [7]: 7.32 µM; IC50 [4]: 0.27 µM; IC50 [8]: 0.39 µM
COCCc1ccc(OCC(O)CNC(C)C)cc1 (stereo not given) [METOPROLOL] | – | – | 4.04 | – | –
C=CC(=O)NCCCC[C@H](NC(=O)Cc1ccccc1)C(=O)N1CCN(c2cccc(C)n2)CC1 | -1 | 29.4 | 8.77 | – | remaining at 1 h, 100 µM [5]: 62%; Ki [7]: 5.73 µM; IC50 [4]: 0.27 µM; IC50 [9]: 0.79 µM; inhibition (Cavia porcellus): Active; IC50 [8]: 0.31 µM
C=CC(=O)NCCCC[C@H](NC(=O)c1ccc(F)cc1)C(=O)N1CCN(c2ccc([N+](=O)[O-])nc2)CC1 | 12 | 28.5 | 4.08 | 14 | Stability [5]: Stable; logD [6]: 2.21

SMILES | Rm [1] [%] | CHI [2] | Papp (in vitro) [×10⁻⁶ cm/s] | Ki [3] [µM] | other results
C=CC(=O)NCCCC[C@H](NC(=O)Cc1ccccc1)C(=O)N1CCN(c2ccc(C(N)=O)nc2)CC1 | – | – | – | 5.72 | –
C=CC(=O)NCCCC[C@H](NC(=O)Cc1ccccc1)C(=O)N1CCN(c2cccc(-c3ccccc3)n2)CC1 | 64 | 39 | 21.9 | – | Ki [7]: 7.76 µM; IC50 [4]: 0.15 µM; IC50 [8]: 0.2 µM
C=CC(=O)NCCCC[C@H](NC(=O)Cc1cccc(F)c1)C(=O)N1CCN(c2cccc(C)n2)CC1 | 24 | 30.9 | 12.5 | – | –
C=CC(=O)NCCCC[C@H](NC(=O)Cc1ccccc1)C(=O)N1CCN(c2cccc(C(C)(C)C)n2)CC1 | 69 | 39.5 | 21.9 | – | Ki [7]: 3.5 µM; IC50 [8]: 0.17 µM
C=CC(=O)NCCCC[C@H](NC(=O)Cc1ccccc1)C(=O)N1CCN(C(=O)c2ccc([N+](=O)[O-])cc2)CC1 | – | – | – | 7.71 | –
C=CC(=O)NCCCC[C@H](NC(=O)Cc1ccccc1)C(=O)N1CCN(c2ccccn2)CC1 | – | – | – | – | Stability [5]: Unstable; Ki [7]: 8.42 µM; IC50 [4]: 0.31 µM; IC50 [8]: 0.34 µM
C=CC(=O)NCCCC[C@H](NC(=O)Cc1ccccc1)C(=O)N1CCN(c2ccc([N+](=O)[O-])cc2)CC1 | – | – | – | 2.52 | –
C=CC(=O)NCCCC[C@H](NC(=O)Cc1ccccc1)C(=O)N1CCN(c2cccc(C)c2)CC1 | – | – | – | 7.55 | –
CCC(=O)NCCCC[C@H](NC(=O)Cc1ccccc1)C(=O)N1CCN(c2cccc(C)n2)CC1 | – | – | – | – | Ki [7]: 64.3 µM
C=CC(=O)NCCCC[C@H](NC(=O)Cc1ccccc1)C(=O)N1CCN(c2cccc(Cl)n2)CC1 | – | – | – | – | Ki [7]: 4.43 µM; IC50 [4]: 0.16 µM; IC50 [8]: 0.18 µM
NS(=O)(=O)c1cc2c(cc1Cl)NCNS2(=O)=O [HYDROCHLOROTHIAZIDE] | – | – | 0.06 | – | –
C=CC(=O)NCCCC[C@H](NC(=O)Cc1ccccc1)C(=O)N1CCN(c2ccc(F)nc2)CC1 | 4 | 26.8 | 3.54 | 10.9 | logD [6]: 1.66
C=CC(=O)NCCCC[C@H](NC(=O)Cc1ccccc1)C(=O)N1CCN(c2ccc(C(F)(F)F)nc2)CC1 | 11 | 31.8 | 8.98 | 6.77 | Stability [5]: Stable; logD [6]: 2.13
C=CC(=O)NCCCC[C@H](NC(=O)Cc1ccccc1)C(=O)N1CCN(c2cccc(Br)n2)CC1 | – | – | – | – | Ki [7]: 5.65 µM; IC50 [4]: 0.2 µM; IC50 [8]: 0.22 µM
C=CC(=O)NCCCC[C@H](NC(=O)Nc1ccccc1)C(=O)N1CCN(c2ccc([N+](=O)[O-])nc2)CC1 | – | – | – | 7.96 | –
C=CC(=O)NCCCC[C@H](NC(=O)Cc1ccc(I)cc1)C(=O)N1CCN(c2cccc(C)n2)CC1 | – | – | – | – | IC50 [4]: 0.16 µM
CCN(CC)c1ccc2c(-c3ccccc3C(=O)N3CCC(C(=O)NCCCCCN)CC3)c3ccc(=[N+](CC)CC)cc-3oc2c1 | – | – | – | – | Ki [4]: 7.14 µM; Ki [8]: 6.81 µM
C=CC(=O)NCCCC[C@H](NC(=O)Cc1ccccc1)C(=O)N1CCN(C(=O)c2ccc(F)cc2)CC1 | -3 | 25 | 3.05 | 13.4 | remaining at 1 h, 100 µM [5]: 85%; logD [6]: 1.6
C=CC(=O)NCCCC[C@H](NC(=O)c1ccc(F)cc1)C(=O)N1CCN(c2cccc(C)n2)CC1 | 16 | 31.4 | 12.7 | – | logD [6]: 0.28
C=CC(=O)NCCCC[C@H](NC(=O)Cc1ccccc1)C(=O)N1CCN(c2ccc([N+](=O)[O-])nc2)CC1 | – | – | – | 2.45 | Activity [10]: 80%; Activity [11]: 74.4%; IC50 [4]: 0.15 µM; IC50 [8]: 0.09 µM
